Source: PMC9820559, “Investigation of the Fuzzy Complex between RSV Nucleoprotein and Phosphoprotein to Optimize an Inhibition Assay by Fluorescence Polarization” (International Journal of Molecular Sciences, 2022)
Values joined by “and” are separate entries in the source; they are usually repeats but may differ in a detail not shown here. Identical values can stand only once. Like-named read-outs stand apart in the source and are kept apart here. Square brackets hold non-standard residues; d marks the D form. Peptide text beside a SMILES is read from it. * marks the point of attachment. BODIPY(FL) = CC1=CC(C)=[N+]2C1=Cc1ccc(CCC(=O)*)n1[B-]2(F)F; FITC = O=C1OC2(c3ccc(O)cc3Oc3cc(O)ccc32)c2ccc(NC(=S)*)cc21; pS = N[C@@H](COP(=O)(O)O)C(=O)O

Experiments:
[1] = Chemical stability of fluorescently labeled P peptides; assay type: physicochemical; conditions: slightly acidic conditions / HPLC purification and FP assay conditions
Description: We started by labeling the pP11 peptide with N-terminally attached BODIPY FL, as described by Shapiro at al.. […] We then produced F11, another labelled peptide P11, by changing the fluorescent label to fluorescein-5-thiourea (FTU) by coupling with fluorescein-5-isothiocyanate (FITC). […] To directly compare FP and NMR data, we made measurements in MES pH 6.5 buffer. Brij-35 detergent (0.01% w/v) was added below its critical micellar concentration (0.11% w/v) to prevent spurious binding of the peptide to the reading plates. […] We tested buffer with and without salt.
Such derivatives were recently described as tags for bioconjugation, but, to our knowledge, not for an FP assay. […] To assess the properties of BODIPY FL as a fluorescent label for P peptides, we produced a new series of eight dicyano BODIPY FL-labeled (BCNn) peptides of variable length (Table 4) and tested them for N-RNA binding.

[2] = target: T1, RSV N-RNA complex (Human respiratory syncytial virus A, UniProt P03418); assay: biochemical; assay type: binding; conditions: Kd, Fn peptides 200 nM, Tris pH 8.0 without salt; single site binding model
T1 construct: Full-length N was produced by co-expression with the C-terminal domain of RSV P protein in E. coli BL21(DE3); made in house; host or cells: E. coli BL21(DE3), co-transformed with pET-N and pGEX-P(161–241)
T1 sequence (P03418 whole entry, looked up, the tested form may be a part, one chain of several): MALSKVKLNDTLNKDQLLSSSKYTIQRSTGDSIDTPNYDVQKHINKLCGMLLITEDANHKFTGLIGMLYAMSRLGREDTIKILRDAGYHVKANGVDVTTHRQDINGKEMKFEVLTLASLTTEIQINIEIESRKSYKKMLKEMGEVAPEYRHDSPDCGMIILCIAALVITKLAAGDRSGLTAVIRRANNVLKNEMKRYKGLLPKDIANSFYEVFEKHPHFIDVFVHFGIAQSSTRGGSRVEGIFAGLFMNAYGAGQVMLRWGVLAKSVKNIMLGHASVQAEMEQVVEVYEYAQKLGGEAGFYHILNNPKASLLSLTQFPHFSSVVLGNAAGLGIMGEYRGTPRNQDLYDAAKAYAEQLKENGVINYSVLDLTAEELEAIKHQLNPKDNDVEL
Description: We carried out FP measurements using the fluorescent F11 peptide and N-RNA complex. […] No salt was added to promote high affinity.
We first measured binding of Fn peptides (200 nM) to N-RNA in Tris buffer by FP (Figure 5A,B). […] We fitted the data with ΔFPmax and Kd as parameters.
We therefore measured fluorescein FP in the presence of N-RNA. […] To test if fluorescein binds to the P-binding site on the N-RNA, we carried out a competition experiment with M76 (Figure 6C).
We first performed FP measurements in salt-free Tris pH 8 buffer (Figure 8A). We measured binding curves using 200 nM of fluorescent peptides.
(§1) Fluorescence polarization measurements were carried out on a Paradigm Detection Platform (Beckman Coulter, Brea, CA, USA) operating with a microplate reader, a fluorescein detection cartridge (excitation range 485/20 nm, emission range 535/25 nm for both parallel and perpendicular components) and the SpectraMax Pro 6.1 software (Molecular Devices, San Jose, CA, USA). Samples were placed in polystyrene black flat bottom 96-well microplates (Cellstar, Greiner bio-one, Frickenhausen, Germany) with 20 µL final volume in each well. If not stated otherwise, the final concentration of fluorescent ligands was 200 nM. The buffer was either 20 mM MES pH 6.5, salt-free or with 250 mM NaCl, or 20 mM Tris pH 8.0 salt-free or with 100 mM NaCl, supplemented with 0.01% Brij-35. Mixing was done using the corresponding plate reader option. The temperature was set to 20 °C. Data were recorded in top reading mode. Measurements were done in triplicate and after an incubation time of 30 min, if not indicated otherwise. Fluorescence polarization (FP) in mFP units was determined from the parallel (I∥) and perpendicular (I⊥) components of the emitted light according to Equation (4). A grating factor G of 1.2 was determined using 1 nM fluorescein in 1 mM NaOH and assuming a theoretical FP of 27 mFP [48]. Background signal was measured from wells containing only buffer, and the mean value was subtracted from each I∥ and I⊥ component. (4) FP (mP)=1000×(I∥−G∗I⊥)/(I∥+G×I⊥)
We assumed that the measured fluorescence polarization FP is a linear combination of the FP of the fluorescent probe in the absence of N protein (FPmin) and the FP of N-bound fluorescent probe (FPmax), weighted by the molar fraction. The molar fraction x = [P]bound/[P]0 can then be expressed as a ratio of FP differences (Equation (8)). (8) x=(FP−FPmin)/(FPmax−FPmin)=∆FP/∆FPmax
To determine the Kd value of a complex between a fluorescent probe and N protein, a series of samples with constant probe concentration and varying N concentration was measured. FP binding curves were fitted with a single binding site model and a 1:1 stoichiometry.

[3] = target: T2, RSV NNTD (Human respiratory syncytial virus A, UniProt P03418); assay: Fluorescence polarization inhibition of NNTD binding to F11
T2 construct: The N-terminal domain NNTD (residues 31–252), containing a C-terminal 6x histidine tag; 6xHis (C); made in house; host or cells: E. coli BL21(DE3)
T2 sequence (P03418 31-252): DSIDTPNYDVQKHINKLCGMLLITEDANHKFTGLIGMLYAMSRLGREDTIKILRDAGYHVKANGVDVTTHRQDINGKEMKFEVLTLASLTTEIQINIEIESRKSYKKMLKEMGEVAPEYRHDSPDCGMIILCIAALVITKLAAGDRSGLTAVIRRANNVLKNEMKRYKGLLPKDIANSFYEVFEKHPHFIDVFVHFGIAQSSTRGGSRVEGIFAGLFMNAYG
Description: We therefore tested competition between M76 and F11 by FP. Measurements were done in salt-free buffer to take advantage of the higher F11-NNTD affinity. The concentration of NNTD was set to 5 µM to benefit from a high range of FP values, comprised between FPmin and ~80% FPmax. […] We fitted the data with a Hill equation (Equation (12)), assuming that the maximal inhibition of F11 binding to the canonical site by M76 was obtained at saturation.
Fluorescence polarization measurements were carried out on a Paradigm Detection Platform (Beckman Coulter, Brea, CA, USA) operating with a microplate reader, a fluorescein detection cartridge (excitation range 485/20 nm, emission range 535/25 nm for both parallel and perpendicular components) and the SpectraMax Pro 6.1 software (Molecular Devices, San Jose, CA, USA). […] Mixing was done using the corresponding plate reader option. […] Data were recorded in top reading mode. […] Fluorescence polarization (FP) in mFP units was determined from the parallel (I∥) and perpendicular (I⊥) components of the emitted light according to Equation (4). A grating factor G of 1.2 was determined using 1 nM fluorescein in 1 mM NaOH and assuming a theoretical FP of 27 mFP [48]. Background signal was measured from wells containing only buffer, and the mean value was subtracted from each I∥ and I⊥ component. […]

[4] = target: T1, RSV N-RNA complex; assay: Fluorescence polarization inhibition of N-RNA binding to fluorescent probes
Excerpt: We next performed inhibition experiments for the F11-(N-RNA) complex by M76 (Figure 4B). FP values decreased with increasing competitor concentration. At saturation, FP nearly reached the value of free F11, showing that the F11 peptide could be nearly completely displaced. Since the same concentration range was used for NNTD and N-RNA, poor solubility of M76 can be ruled out to explain the saturation observed before complete displacement of F11 in the presence NNTD (Figure 3C). This reinforces the hypothesis of a second binding site on NNTD, outside the canonical P-binding site. […]
To probe the potency of M76 as an inhibitor, we carried out competition experiments with the M76 molecule and several BCNn peptides. M76 was able to displace the fluorescent probes from N-RNA, and inhibition curves were obtained (Figure 8E). Since we used different N concentrations to have similar dynamic ranges of FP for the series of fluorescent peptides, we cannot directly compare M76 IC50s. However, Kis may be compared.
as §1
To assess inhibition of a complex between a fluorescent probe and N protein by peptides or the M76 molecule, the concentration of N was set to work with an FP range comprised between FPmin and ~80% FPmax. Peptides were added from 1 or 2 mM stock solution in water at neutral pH. M76 was added from 10 or 20 mM stock solutions in ethanol or in DMSO. […] Inhibition data were fitted with Origin 7, and in parallel with the Excel solver module. All data were compatible with an absence of cooperativity. FPmax and FPmin were fitted, and the maximal inhibition %i,max was set to 100%. (11) %i=100×[1−(FP−FPmin)/(FPmax−FPmin)] (12) %i=%i,max×[inhibitor]/[inhibitor]+IC50
Inhibition constants Ki were calculated on the IC50-to-Ki converter for a protein-ligand-inhibitor system (https://bioinfo-abcc.ncifcrf.gov/IC50_Ki_Converter/index.php, accessed on 24 August 2022), assuming a competitive mechanism (Equation (13)). This tool takes into account the free concentrations of protein and ligand. (13) Ki=(IC50−[protein]/2)/([peptide]/Kd+1)

SMILES: Cc1cc(C)n2c1C=C1C=CC(CCC(=O)N[C@@H](CC(=O)O)C(=O)N[C@@H](COP(=O)(O)O)C(=O)N[C@@H](CC(=O)O)C(=O)N[C@@H](CC(N)=O)C(=O)N[C@@H](CC(=O)O)C(=O)N[C@@H](CC(C)C)C(=O)N[C@@H](COP(=O)(O)O)C(=O)N[C@@H](CC(C)C)C(=O)N[C@@H](CCC(=O)O)C(=O)N[C@@H](CC(=O)O)C(=O)N[C@@H](Cc3ccccc3)C(=O)O)=[N+]1[B-]2(F)F [BF2pP11] ({BODIPY(FL)}-D[pS]DNDL[pS]LEDF-OH)
- chemical stability [1]: prone to degradation

SMILES: CC(C)C[C@H](NC(=O)[C@H](CO)NC(=O)[C@H](CC(C)C)NC(=O)[C@H](CC(=O)O)NC(=O)[C@H](CC(N)=O)NC(=O)[C@H](CC(=O)O)NC(=O)[C@H](CO)NC(=O)[C@H](CC(=O)O)NC(=S)Nc1ccc2c(c1)C(=O)OC21c2ccc(O)cc2Oc2cc(O)ccc21)C(=O)N[C@@H](CCC(=O)O)C(=O)N[C@@H](CC(=O)O)C(=O)N[C@@H](Cc1ccccc1)C(=O)O [F11, ϕ-DS232DNDLS237LEDF-OH] ({FITC}-DSDNDLSLEDF-OH)
- Kd [2]: 7.6 ± 0.9 µM
- chemical stability [1]: stable

SMILES: O=C(O)c1cc(C(=O)O)n(Cc2ccc(Cl)cc2Cl)n1 [M76, 1-(2,4-dichlorobenzyl)-1H-pyrazole-3,5-dicarboxylic acid]
- IC50 [3]: 28 ± 5 µM
- Ki [3]: 2.5 µM
- IC50 ([4]; fluorescent probe F7E 200 nM, 10 µM N-RNA, Tris pH 8 without salt, read-out: IC50): 48 ± 5 µM
- Ki ([4]; fluorescent probe F7E 200 nM, 10 µM N-RNA, from IC50 and Kd 2.5 µM, read-out: Ki): 8 µM
- IC50 ([4]; fluorescent probe F11 200 nM, 10 µM N-RNA, Tris pH 8 without salt, read-out: IC50): 12.6 µM and 13 µM
- Ki ([4]; fluorescent probe F11 200 nM, 10 µM N-RNA, from IC50 and Kd 7.6 µM with IC50-to-Ki server, read-out: Ki): 3 µM
- IC50 ([4]; fluorescent probe fluorescein 1 200 nM, 20 µM N-RNA, read-out: M76 IC50): 27 ± 2 µM
- Ki ([4]; fluorescent probe fluorescein 1, 20 µM N-RNA, from IC50 and Kd, read-out: M76 Ki): 13 µM
- IC50 ([4]; fluorescent probe fluorescein ethyl ester 3 200 nM, 20 µM N-RNA, read-out: M76 IC50): 65 ± 9 µM
- Ki ([4]; fluorescent probe fluorescein ethyl ester 3, 20 µM N-RNA, from IC50 and Kd, read-out: M76 Ki): 50 µM
- IC50 ([4]; fluorescent probe fluorescein methyl ester 2 200 nM, 20 µM N-RNA, read-out: M76 IC50): 46 ± 7 µM
- Ki ([4]; fluorescent probe fluorescein methyl ester 2, 20 µM N-RNA, from IC50 and Kd, read-out: M76 Ki): 32 µM
- IC50 ([4]; probe BCN5E 200 nM, [N-RNA] 2 µM, Tris pH 8, read-out: Fitted IC50): 7 ± 0.6 µM
- IC50 ([4]; probe BCN5E 200 nM, [N-RNA] 20 µM, Tris pH 8, read-out: Fitted IC50): 26 ± 2 µM
- Ki ([4]; probe BCN5E, [N-RNA] 2 µM, IC50-to-Ki server, read-out: Ki): 4.8 µM
- Ki ([4]; probe BCN5E, [N-RNA] 20 µM, IC50-to-Ki server, read-out: Ki): 3.6 µM
- Ki ([4]; probe BCN5E, [N-RNA] 2 and 20 µM, read-out: Ki values for inhibition of BCN5E): 3.6 to 4.8 µM
- IC50 ([4]; probe BCN6E 200 nM, [N-RNA] 2 µM, Tris pH 8, read-out: Fitted IC50): 2.7 ± 0.2 µM
- IC50 ([4]; probe BCN6E 200 nM, [N-RNA] 10 µM, Tris pH 8, read-out: Fitted IC50): 14 ± 1 µM
- Ki ([4]; probe BCN6E, [N-RNA] 2 µM, IC50-to-Ki server, read-out: Ki): 0.7 µM
- Ki ([4]; probe BCN6E, [N-RNA] 10 µM, IC50-to-Ki server, read-out: Ki): 1.1 µM
- IC50 ([4]; probe BCN8E 200 nM, [N-RNA] 2 µM, Tris pH 8, read-out: Fitted IC50): 4.5 ± 0.4 µM
- IC50 ([4]; probe BCN8E 200 nM, [N-RNA] 5 µM, Tris pH 8, read-out: Fitted IC50): 13 ± 2 µM
- Ki ([4]; probe BCN8E, [N-RNA] 2 µM, IC50-to-Ki server, read-out: Ki): 1.3 µM
- Ki ([4]; probe BCN8E, [N-RNA] 5 µM, IC50-to-Ki server, read-out: Ki): 2 µM
- IC50 ([4]; probe BCN10EE 200 nM, [N-RNA] 2 µM, Tris pH 8, read-out: Fitted IC50): 8.9 ± 0.6 µM
- IC50 ([4]; probe BCN10EE 200 nM, inhibitor M76, [N-RNA] 1 µM, Tris pH 8, read-out: Fitted IC50): 8.5 ± 0.6 µM
- Ki ([4]; probe BCN10EE, [N-RNA] 2 µM, IC50-to-Ki server, read-out: Ki): 0.5 µM
- Ki ([4]; probe BCN10EE, inhibitor M76, [N-RNA] 1 µM, IC50-to-Ki server, read-out: Ki): 1.1 µM
- IC50 ([4]; probe BCN11SE 200 nM, [N-RNA] 5 µM, Tris pH 8, read-out: Fitted IC50): 17 ± 2 µM
- Ki ([4]; probe BCN11SE, [N-RNA] 5 µM, IC50-to-Ki server, read-out: Ki): 1.8 µM
